From patent US20240197813A1, “TREATMENT OF DYSPHAGIA” (OT4B, priority 2021, published 2024)
Entries after “also recorded” stand apart in the source; their conditions may differ.

Legend:
[1] = tested on: dysphagia in patient with Prader-Willi syndrome; experiment: Case report PATIENT 1: daily intranasal oxytocin, videofluoroscopic swallow study (VFSS); format: in vivo, human; conditions: PWS patient, 8 IU daily intranasal, 3 weeks
Excerpt: PATIENT 1 was […] with Prader-Willi syndrome due to maternal uniparental disomy diagnosed soon after at birth.
The videofluoroscopic swallow study (VFSS) was abnormal with prolonged oesophageal transit and decreased peristalsis and abnormal closure of upper oesophageal sphincter.
They received 8IU of daily intranasal OXT during 3 weeks.

[2] = tested on: dysphagia in patient with neurodevelopmental disorder and hypothalamic disorder; experiment: Case report PATIENT 2: daily intranasal oxytocin, VFSS and clinical symptoms; format: in vivo, human; conditions: 16 IU daily intranasal, 3 weeks
Excerpt: PATIENT 2 was […]. They suffered from neurodevelopmental disorder and presented hypothalamic disorder.
The VFSS was abnormal including slow pharyngeal transit with pharyngeal residues and slow oesophageal transit with oesophageal reflux and stasis.
They received daily 16 IU of intranasal OXT during 3 weeks.

[3] = tested on: infants with PWS under 6 months old; conditions: cited from earlier work

CC[C@H](C)[C@@H]1NC(=O)[C@H](Cc2ccc(O)cc2)NC(=O)[C@@H](N)CSSC[C@@H](C(=O)N2CCC[C@H]2C(=O)N[C@@H](CC(C)C)C(=O)NCC(N)=O)NC(=O)[C@H](CC(N)=O)NC(=O)[C@H](CCC(N)=O)NC1=O [oxytocin]
VFSS overall [1]: improved VFSS
oesophageal transit (VFSS) [1]: improved oesophageal transit; also recorded: improve esophageal transit
peristalsis (VFSS) [1]: complete normalization of peristalsis
tolerability of treatment [1]: well tolerated
upper oesophageal sphincter closure (VFSS) [1]: normal upper oesophageal sphincter closure; also recorded: complete normalization
clinical symptoms of dysphagia [2]: improved clinical symptoms of dysphagia
oesophageal transit [2]: normalize
oropharyngeal initiation and synchronisation [2]: normalize oropharyngeal initiation and synchronization
stasis and reflux on VFSS after treatment [2]: neither stasis nor reflux
tolerability of treatment [2]: well tolerated
oesophageal transit ([2]; listed as OXT): normalization of oesophageal transit
oropharyngeal initiation and synchronisation ([2]; listed as OXT): normalization of oropharyngeal initiation and synchronisation
tolerability of intranasal administration [3]: well-tolerated
feeding and social skills ([3]; intranasal): significantly improves
